Where a name gives a salt, the structure may show the parent alone.

One assay concerns SK-MEL-3 tumor cells. Briefly: Cell growth inhibition assay (CellTiter-Glo), SK-MEL-3. As to conditions: for IC50: Homo sapiens, SK-MEL3. The class given is cell-based, Human. Put shortly: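 Readout was CellTiter-Glo luminescence (total ATP, surrogate for cell number) after 3-day exposure at 37° C, 5% CO2 to 1:3 serial compound dilutions in 0.2% final DMSO. Seeding was 500 cells/well; IC50 derived by 4-parameter fit relative to vehicle-treated wells.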
For orientation: Cellular ATP, detected with luciferase, serves as a proxy for viable cell number.

A further assay has as its system Colo205 tumor cells. Briefly: Cell growth inhibition assay (CellTiter-Glo), Colo205. The class given is cell-based, Human. The note with it: Homo sapiens, COLO 205, 72 h; 3 days incubation. The essentials:
(§1)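 Cells plated at 500 cells/well in their growth media, dosed next day with nine-step 1:3 compound dilutions (final DMSO 0.2%), then incubated 3 days at 37° C, 5% CO2. Total ATP read by CellTiter-Glo luminescence as a surrogate for cell number; IC50 interpolated from 4-parameter fit versus DMSO controls.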

A further assay relates to SK-MEL-28 tumor cells. The experiment in a line: Cell growth inhibition assay (CellTiter-Glo), SK-MEL-28. The class given is cell-based, Human. The note with it: Homo sapiens, SK-MEL-28, 72 h; 3 days incubation. Put shortly:
as §1

The target in a further assay is T1, ErbB2 (Homo sapiens, UniProt P04626).
T1 construct: made in house; host or cells: baculovirus expression system
The experiment in a line: ErbB-2 substrate phosphorylation assay (HTRF). Type of assay: biochemical. Put shortly:
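Baculovirus-expressed EGFR (0.8 nM) or ErbB2 (10 nM) in enzyme mix, preincubated 1 h at 20 °C with compound (0.00027–47.6 μM final), then 90 min at 20 °C with substrate mix of 20 μM ATP, 0.8 uM biotinylated Peptide C, MnCl2, MOPS pH 7.5. Phosphotyrosine by HTRF; pIC50 reported.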
In general terms: TR-FRET usually uses a lanthanide donor and a delayed reading to cut background.

T1 sequence (P04626 23-1255): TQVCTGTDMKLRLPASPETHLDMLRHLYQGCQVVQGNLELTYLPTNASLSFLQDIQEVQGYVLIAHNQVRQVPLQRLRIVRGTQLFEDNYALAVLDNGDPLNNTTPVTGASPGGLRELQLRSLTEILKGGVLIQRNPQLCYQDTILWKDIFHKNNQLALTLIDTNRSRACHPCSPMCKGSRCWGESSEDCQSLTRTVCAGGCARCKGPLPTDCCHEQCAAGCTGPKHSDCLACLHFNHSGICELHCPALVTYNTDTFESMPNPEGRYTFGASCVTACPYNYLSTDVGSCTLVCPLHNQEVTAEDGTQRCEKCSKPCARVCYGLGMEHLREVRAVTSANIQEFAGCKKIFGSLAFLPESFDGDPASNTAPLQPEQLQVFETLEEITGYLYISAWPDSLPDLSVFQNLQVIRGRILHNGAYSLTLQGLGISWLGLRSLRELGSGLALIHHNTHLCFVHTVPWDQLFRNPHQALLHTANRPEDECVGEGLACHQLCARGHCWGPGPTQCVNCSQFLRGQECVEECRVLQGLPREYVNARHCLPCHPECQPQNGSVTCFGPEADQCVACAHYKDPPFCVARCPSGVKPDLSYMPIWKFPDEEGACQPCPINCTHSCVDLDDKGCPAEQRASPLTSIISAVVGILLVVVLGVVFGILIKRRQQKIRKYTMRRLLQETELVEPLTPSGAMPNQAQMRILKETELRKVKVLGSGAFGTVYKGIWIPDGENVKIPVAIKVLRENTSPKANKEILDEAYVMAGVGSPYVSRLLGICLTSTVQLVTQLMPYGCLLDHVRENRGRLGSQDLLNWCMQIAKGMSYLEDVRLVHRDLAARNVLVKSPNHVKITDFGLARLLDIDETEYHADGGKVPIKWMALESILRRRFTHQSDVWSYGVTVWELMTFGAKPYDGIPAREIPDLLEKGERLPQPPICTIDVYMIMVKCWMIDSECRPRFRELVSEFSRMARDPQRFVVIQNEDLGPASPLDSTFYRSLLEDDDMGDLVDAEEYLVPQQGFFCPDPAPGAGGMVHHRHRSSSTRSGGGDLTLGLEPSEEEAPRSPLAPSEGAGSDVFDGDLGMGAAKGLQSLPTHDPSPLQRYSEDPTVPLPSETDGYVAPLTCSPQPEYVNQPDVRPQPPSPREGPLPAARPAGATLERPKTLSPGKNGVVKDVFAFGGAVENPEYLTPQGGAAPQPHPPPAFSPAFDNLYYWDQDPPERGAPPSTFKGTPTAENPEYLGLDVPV

Usually IC50 stands for the concentration needed to halve the response being measured. Lower therefore signals greater potency. As for `CC(C)c1nc(-c2ccc(F)c(NS(=O)(=O)c3ccccc3C#N)c2)c(-c2ccnc(Nc3ccc(N4CCOCC4)nc3)n2)s1` [Example 107], the IC50 with SK-MEL-3 tumor cells, in the assay with Colo205 tumor cells, in the assay with SK-MEL-28 tumor cells and against ErbB2 was 100 to 1000 nM in each case.

As to `CC(C)c1nc(-c2cc(F)c(F)c(NS(=O)(=O)c3cccc(F)c3)c2)c(-c2ccnc(Nc3cnc(N4CCOCC4)c(F)c3)n2)s1` [Example 31, N-{2,3-Difluoro-5-[5-(2-{[5-fluoro-6-(4-morpholinyl)-3-pyridinyl]amino}-4-pyrimidinyl)-2-(1-methylethyl)-1,3-thiazol-4-yl]phenyl}-3-fluorobenzenesulfonamide], the IC50 was 100 to 1000 nM with SK-MEL-3 tumor cells, 100 to 1000 nM with Colo205 tumor cells, 100 to 1000 nM in the assay on SK-MEL-28 tumor cells and more than 1000 nM against ErbB2.

On to `CC(=O)N1CCN(c2ccc(Nc3nccc(-c4sc(C(C)C)nc4-c4cccc(NS(=O)(=O)c5cccc(C(F)(F)F)c5)c4)n3)cn2)CC1` [Example 70], for which the IC50 was 100 to 1000 nM in the assay on SK-MEL-3 tumor cells, 100 to 1000 nM in the assay with Colo205 tumor cells, 100 to 1000 nM with SK-MEL-28 tumor cells and more than 1000 nM on ErbB2.

With `CC(C)c1nc(-c2cccc(NS(=O)(=O)c3c(F)cccc3F)c2)c(-c2ccnc(Nc3ccc(N4CCOCC4)nc3)n2)s1` [Example 17, 2,6-Difluoro-N-{3-[2-(1-methylethyl)-5-(2-{[6-(4-morpholinyl)-3-pyridinyl]amino}-4-pyrimidinyl)-1,3-thiazol-4-yl]phenyl}benzenesulfonamide], the IC50 was less than 100 nM with SK-MEL-3 tumor cells, less than 100 nM in the assay on Colo205 tumor cells, less than 100 nM in the assay with SK-MEL-28 tumor cells and more than 1000 nM at ErbB2.

Take `CC(C)c1nc(-c2cccc(NS(=O)(=O)c3c(F)cccc3F)c2)c(-c2ccnc(Nc3ccc(N4CCN5CCOC[C@H]5C4)nc3)n2)s1` [Example 15]: the IC50 was less than 100 nM in the assay on SK-MEL-3 tumor cells, less than 100 nM in the assay on Colo205 tumor cells, less than 100 nM in the assay with SK-MEL-28 tumor cells and 100 to 1000 nM on ErbB2.

For the compound `CC(C)c1nc(-c2ccc(F)c(NS(=O)(=O)c3ccccc3F)c2)c(-c2ccnc(Nc3ccc(N4CCN(CCS(C)(=O)=O)CC4)c(F)c3)n2)s1` [Example 22, 2-Fluoro-N-{2-fluoro-5-[5-{2-[(3-fluoro-4-}4-[2-(methylsulfonyl)ethyl]-1-piperazinyl}phenyl)amino]-4-pyrimidinyl}-2-(1-methylethyl)-1,3-thiazol-4-yl]phenyl}benzenesulfonamide hydrochloride], the IC50 in the assay on SK-MEL-3 tumor cells is 100 to 1000 nM; in the assay on Colo205 tumor cells it was less than 100 nM; with SK-MEL-28 tumor cells it was less than 100 nM; at ErbB2, less than 100 nM.

In the case of `CC(C)c1nc(-c2ccc(F)c(NS(=O)(=O)c3c(F)cccc3F)c2)c(-c2ccnc(Nc3ccnc(N4CCOCC4)c3)n2)s1` [Example 117], the IC50 in the assay with SK-MEL-3 tumor cells is 100 to 1000 nM; in the assay with Colo205 tumor cells it was less than 100 nM; in the assay on SK-MEL-28 tumor cells it was less than 100 nM; against ErbB2, less than 100 nM.

Consider `CC(C)c1nc(-c2cccc(NS(=O)(=O)c3cccnc3)c2)c(-c2ccnc(Nc3ccc(N4CCOCC4)nc3)n2)s1` [Example 52], for which the IC50 was less than 100 nM with SK-MEL-3 tumor cells, less than 100 nM in the assay on Colo205 tumor cells, less than 100 nM in the assay on SK-MEL-28 tumor cells and 100 to 1000 nM on ErbB2.

Take `O=S(=O)(Nc1cccc(-c2ncsc2-c2ccnc(Nc3ccc(N4CCOCC4)nc3)n2)c1)c1c(F)cccc1F` [Example 162]: the IC50 with SK-MEL-3 tumor cells was less than 100 nM; in the assay with Colo205 tumor cells, less than 100 nM; with SK-MEL-28 tumor cells, less than 100 nM; against ErbB2, more than 1000 nM.

Consider `COc1cc(N2CCN(CCS(C)(=O)=O)CC2)c(C)cc1Nc1nccc(-c2sc(N3CCOCC3)nc2-c2cccc(NS(=O)(=O)c3c(F)cccc3F)c2)n1` [Example 128], for which the IC50 with SK-MEL-3 tumor cells is less than 100 nM; with Colo205 tumor cells, less than 100 nM; in the assay on SK-MEL-28 tumor cells, 100 to 1000 nM; on ErbB2, less than 100 nM.

Consider `CC(C)c1nc(-c2ccnc(NS(=O)(=O)c3c(F)cccc3F)c2)c(-c2ccnc(Nc3cnc(N4CCOCC4)c(F)c3)n2)s1` [Example 33], for which the IC50 in the assay on SK-MEL-3 tumor cells is less than 100 nM; with Colo205 tumor cells it was less than 100 nM; in the assay with SK-MEL-28 tumor cells it was less than 100 nM; at ErbB2, more than 1000 nM.

`CC(C)c1nc(-c2ccc(F)c(NS(=O)(=O)c3c(F)cccc3F)c2)c(-c2ccnc(Nc3ccc(N4CCOCC4)nc3)n2)s1` [Example 23, 2,6-Difluoro-N-{2-fluoro-5-[2-(1-methylethyl)-5-(2-{[6-(4-morpholinyl)-3-pyridinyl]amino}-4-pyrimidinyl)-1,3-thiazol-4-yl]phenyl}benzenesulfonamide]: the IC50 in the assay on SK-MEL-3 tumor cells is less than 100 nM; in the assay on Colo205 tumor cells it was less than 100 nM; in the assay on SK-MEL-28 tumor cells, less than 100 nM; against ErbB2 it was 100 to 1000 nM.

In the case of `CN(C)c1nc(-c2ccc(F)c(NS(=O)(=O)c3c(F)cccc3F)c2)c(-c2ccnc(Nc3ccc(N4CCOCC4)nc3)n2)s1` [Example 27, N-{5-[2-(Dimethylamino)-5-(2-{[6-(4-morpholinyl)-3-pyridinyl]amino}-4-pyrimidinyl)-1,3-thiazol-4-yl]-2-fluorophenyl}-2,6-difluorobenzenesulfonamide], the IC50 with SK-MEL-3 tumor cells is less than 100 nM; in the assay on Colo205 tumor cells, 100 to 1000 nM; with SK-MEL-28 tumor cells, 100 to 1000 nM; against ErbB2 it was 100 to 1000 nM.

For `CN1CCC(c2nc(-c3ccc(F)c(NS(=O)(=O)c4c(F)cccc4F)c3)c(-c3ccnc(Nc4ccc(N5CCOCC5)nc4)n3)s2)CC1` [Example 106], the IC50 was less than 100 nM with SK-MEL-3 tumor cells, 100 to 1000 nM in the assay on Colo205 tumor cells, 100 to 1000 nM with SK-MEL-28 tumor cells and 100 to 1000 nM at ErbB2.

Consider `CC(C)c1nc(-c2ccc(F)c(NS(=O)(=O)c3c(F)cccc3F)c2)c(-c2ccnc(Nc3ccc(N4CCN5CCOC[C@H]5C4)nc3)n2)s1` [Example 97], for which the IC50 is less than 100 nM in the assay on SK-MEL-3 tumor cells, less than 100 nM with Colo205 tumor cells, less than 100 nM with SK-MEL-28 tumor cells and 100 to 1000 nM on ErbB2.

Consider `CC(=O)N1CCN(c2ccc(Nc3nccc(-c4sc(C(C)C)nc4-c4cccc(NS(=O)(=O)c5cccc(F)c5)c4)n3)cn2)CC1` [Example 11, N-{3-[5-(2-{[6-(4-Acetyl-1-piperazinyl)-3-pyridinyl]amino}-4-pyrimidinyl)-2-(1-methylethyl)-1,3-thiazol-4-yl]phenyl}-3-fluorobenzenesulfonamide], for which the IC50 in the assay on SK-MEL-3 tumor cells is less than 100 nM; in the assay with Colo205 tumor cells, less than 100 nM; in the assay on SK-MEL-28 tumor cells, less than 100 nM; on ErbB2 it was 100 to 1000 nM.

Regarding `CS(=O)(=O)CCN1CCN(c2ccc(Nc3nccc(-c4oc(N5CCCC5)nc4-c4cccc(NS(=O)(=O)c5c(F)cccc5F)c4F)n3)cc2F)CC1` [Example 167], the IC50 in the assay with SK-MEL-3 tumor cells, in the assay on Colo205 tumor cells, with SK-MEL-28 tumor cells and at ErbB2 was less than 100 nM each time.

Take `Cc1cc(N2CCN(CCS(C)(=O)=O)CC2)ncc1Nc1nccc(-c2sc(C(C)C)nc2-c2cccc(NS(=O)(=O)c3c(F)cccc3F)c2)n1` [Example 131]: the IC50 is less than 100 nM in the assay with SK-MEL-3 tumor cells, less than 100 nM in the assay on Colo205 tumor cells, less than 100 nM with SK-MEL-28 tumor cells and 100 to 1000 nM against ErbB2.

In the case of `Cc1nc(Cl)sc1S(=O)(=O)Nc1cccc(-c2nc(C(C)C)sc2-c2ccnc(Nc3ccc(N4CCOCC4)nc3)n2)c1` [Example 42], the IC50 in the assay on SK-MEL-3 tumor cells was less than 100 nM; in the assay on Colo205 tumor cells, less than 100 nM; in the assay on SK-MEL-28 tumor cells, less than 100 nM; on ErbB2, more than 1000 nM.

Take `Cc1cc(N2CCOCC2)ncc1Nc1nccc(-c2sc(N3CCCC3)nc2-c2cccc(NS(=O)(=O)c3c(F)cccc3F)c2)n1` [Example 124]: in the assay on SK-MEL-3 tumor cells, the “Activity in SK-MEL-3 Tumor Cells” value is on record as “+ (activity of >1 μM in SK-MEL-3 tumor cells)”. Besides, the IC50 in the assay on Colo205 tumor cells, in the assay with SK-MEL-28 tumor cells and against ErbB2 was 100 to 1000 nM each time.

For the compound `O=S(=O)(Nc1cccc(-c2nc(N3CCCCC3)sc2-c2ccnc(Nc3ccc(N4CCOCC4)nc3)n2)c1)c1c(F)cccc1F` [Example 151], the IC50 in the assay with SK-MEL-3 tumor cells is less than 100 nM; with Colo205 tumor cells it was less than 100 nM; in the assay on SK-MEL-28 tumor cells it was less than 100 nM; at ErbB2, more than 1000 nM.

Turning to `O=S(=O)(Nc1cc(-c2nc(N3CCCC3)sc2-c2ccnc(Nc3ccc(N4CCOCC4)nc3)n2)ccc1F)c1c(F)cccc1F` [Example 26, 2,6-Difluoro-N-{2-fluoro-5-[5-(2-{(6-(4-morpholinyl)-3-pyridinyl]amino}-4-pyrimidinyl)-2-(1-pyrrolidinyl)-1,3-thiazol-4-yl]phenyl}benzenesulfonamide], the IC50 with SK-MEL-3 tumor cells is 100 to 1000 nM; in the assay with Colo205 tumor cells, less than 100 nM; in the assay on SK-MEL-28 tumor cells, less than 100 nM; at ErbB2 it was 100 to 1000 nM.

Regarding `CC(C)c1nc(-c2cccc(NS(=O)(=O)c3c(F)cccc3F)c2)c(-c2ccnc(Nc3ccc(N4CCOCC4)c(F)c3)n2)o1` [Example 57], the IC50 is 100 to 1000 nM with SK-MEL-3 tumor cells, less than 100 nM in the assay on Colo205 tumor cells, less than 100 nM in the assay with SK-MEL-28 tumor cells and more than 1000 nM against ErbB2.

Consider `O=S(=O)(Nc1cccc(-c2nc(N3CCOCC3)sc2-c2ccnc(Nc3ccc(N4CCOCC4)nc3)n2)c1F)c1c(F)cccc1F` [Example 122], for which the IC50 is less than 100 nM with SK-MEL-3 tumor cells, less than 100 nM in the assay with Colo205 tumor cells, less than 100 nM with SK-MEL-28 tumor cells and 100 to 1000 nM against ErbB2.

On to `O=S1(=O)Cc2ccc(Nc3nccc(-c4sc(N5CCOCC5)nc4-c4cccc(NS(=O)(=O)c5c(F)cccc5F)c4F)n3)cc2C1` [Example 155], for which the IC50 in the assay on SK-MEL-3 tumor cells was less than 100 nM; with Colo205 tumor cells, less than 100 nM; with SK-MEL-28 tumor cells it was less than 100 nM; at ErbB2 it was 100 to 1000 nM.

For the compound `CN1CCN(c2nc(-c3ccc(F)c(NS(=O)(=O)c4c(F)cccc4F)c3)c(-c3ccnc(Nc4ccc(N5CCOCC5)nc4)n3)s2)CC1` [Example 126], the half-inhibitory concentration (IC50) was 100 to 1000 nM with SK-MEL-3 tumor cells, less than 100 nM in the assay with Colo205 tumor cells, less than 100 nM in the assay with SK-MEL-28 tumor cells and 100 to 1000 nM on ErbB2.
